Tested on: DU145 cells
Test: Oligonucleotide microarray analysis (Affymetrix) of treated DU145 cells
Assay type: cell-based, human
Set-up: dose or concentration left out as unconfirmed
Details: DU145, 6 hrs
Experimental: Gene expression profile comparison of the drug-treated and untreated cells might reveal specific molecular pathways affected by fatostatin A. DU145 cells were treated with fatostatin A or DMSO alone, and extracted mRNA samples were analyzed by Affimetrix DNA microarrays mapping 33,000 genes (Table 1).
DU145 prostate cancer cells were treated with […] of fatostatin A or DMSO alone in the presence of 1 μg/mL of IGF1 for 6 hrs in a serum free medium, total RNA was extracted in a TRI reagent (Molecular Research Center) and further isolated by RNeasy Mini Kit (Qiagen). Purified mRNA was analyzed in Baylor College of Medicine Microarray Core Facility by Affymetrix Human Genome U133 Plus 2.0 Array consisting of almost 45,000 probe sets representing more than 39,000 transcripts derived from approximately 33,000 well-substantiated human genes (Affymetrix, Inc.).
As described herein, fatostatin inhibits the insulin-induced adipogenesis of 3T3-L1 cells and the serum-independent growth of DU145 cells (Choi et al., 2003). Gene expression profiles of drug-treated and untreated cells were compared to gain information about specific molecular pathways affected by fatostatin. DU145 cells were treated with fatostatin or DMSO alone, and the extracted mRNA samples were analyzed by Affymetrix DNA microarrays mapping 33,000 genes. Of those genes (all of which are available at the National Center for Biotechnology Information's GenBank database on the world wide web), transcription levels of 63 genes decreased at least 35% in response to fatostatin treatment (Table 5). Thirty-four of the affected genes were directly associated with fat or sterol synthesis, such as genes encoding biosynthetic enzymes, and 18 of the affected genes have been reported to be controlled by SREBPs (Horton et al., 2003). Downregulation of the affected SREBP-responsive genes was confirmed by RT-PCR experiments.
Oligonucleotide microarray analysis. DU145 prostate cancer cells were treated with […] of fatostatin or DMSO alone in the presence of 1 μg/mL of IGF1 for 6 hrs in a serum free medium, total RNA was extracted in a TRI reagent (Molecular Research Center) and further isolated by RNeasy Mini Kit (Qiagen). Purified mRNA was analyzed in Baylor College of Medicine Microarray Core Facility by Affymetrix Human Genome U133 Plus 2.0 Array consisting of almost 45,000 probe sets representing more than 39,000 transcripts derived from approximately 33,000 well-substantiated human genes (Affymetrix, Inc.).

CCCc1cc(-c2nc(-c3ccc(C)cc3)cs2)ccn1 [Compound 1, 2-propyl-4-(4-p-tolylthiazol-2-yl)pyridine]
transcription level (fold), famesyl-diphosphate farnesyltransferase (:AA872727): 0.5359 | transcription level (fold), mevalonate (diphospho) decarboxylase (A1189359): 0.3299 | transcription level (fold), stearoyl-CoA desaturase (delta-9-desaturase) (AB032261): 0.5743 | transcription level (fold), Homo sapiens putative sterol reductanse SR-1 (TM7SF2) (AF096304): 0.6156 | transcription level (fold), squalene epoxidase (AF098865): 0.5 | Decreased fold, Homo sapiens androgen-regulated short-chain dehydrogenaseneductase 1 (AF167438): 0.6598 | transcription level (fold), Homo sapiens androgen-regulated short-chain dehydrogenasereductase 1 (ARSDR1) (AF167438): 0.6598 | transcription level (fold), Cullin 4B (AI670819): 0.7071 | transcription level (fold), low density lipoprotein receptor (familial hypercholesterolemia) (AI861942): 0.5743 | transcription level (fold), ATP citrate lyase (AI971281): 0.5743 | Decreased fold, acetyl-CoA synthetase (AK000162): 0.5359 | transcription level (fold), acetyl-CoA synthetase (AK000162): 0.5359 | transcription level (fold), malic enzyme 1, NADP(+)-dependent, cytosolic (AL049699): 0.7071 | transcription level (fold), 3-hydroxy-3-methylglutaryl-Coenzyme A reductase (AL518627): 0.5 | transcription level (fold), human glucose transporter pseudogene (AL565516): 0.7071 | transcription level (fold), Tubulin, beta 4 (AL565749): 0.6598 | transcription level (fold), tubulin, alpha 1 (testis specific) (AL575074): 0.4665 | transcription level (fold), cytochrome P450, subfamily I (dioxin-inducible), polypeptide 1 (AU144855): 0.5 | transcription level (fold), lanosterol synthase (2,3-oxidosqualene-lanosterol cyclase) (AW084510): 0.5743 | transcription level (fold), cytochrome b5 outer mitochondrial membrane precursor (AW235051): 0.5743 | transcription level (fold), acetyl-Coenzyme A carboxylase alpha (B3855983): 0.5743 | transcription level (fold), NAD(P) dependent steroid dehydrogenase-like; H105e3 (BC000245): 0.4665 | transcription level (fold), acetyl-Coenzyme A acetyltransferase 2 (acetoacetyl Coenzyme A thiolase) (BC000408): 0.5743 | Decreased fold, acetyl-Coenzyme A acetyltransferase 2 (BC000408.1): 0.5743 | transcription level (fold), Homo sapiens, similar to tubulin, beta4 (BC002654): 0.6598 | transcription level (fold), isopentenyl-diphosphate delta isomerase (BC005247): 0.4665 | transcription level (fold), Homo sapiens, tubulin, beta5 (BC005838): 0.6598 | transcription level (fold), insulin induced gene 1 (BE300521): 0.3299 | transcription level (fold), dihydrolipoamide S-acetyltransferase (BF978872): 0.6598 | transcription level (fold), DNAJ (Hsp40) homolog, subfamily B, member 4 (BG252490): 0.7071 | Decreased fold, lanosterol synthase (D63807.1): 0.6156 | transcription level (fold), lanosterol synthase (2,3-oxidosqualene-lanosterol cyclase) (D63807.1): 0.6156 | transcription level (fold), lipin 1 (D80010.1): 0.5 | Decreased fold, sterol-05-desaturase (D85181.1): 0.5 | transcription level (fold), sterol-C5-desaturase (fungal ERG3, delta-5-desaturase)-like (D85181.1): 0.5 | transcription level (fold), Fatty-acid-Coenzyme A ligase, long-chain 3 (D89053.1): 0.7071 | transcription level (fold), prostaglandin E2 receptor (L32662.1): 0.5 | Decreased fold, 3-hydroxy-3-methylglutaryl-Coenzyme A reductase (HMG CoA R) (NM000859.1): 0.5 | Decreased fold, 3-hydroxy-3-methylglutaryl-Coenzyme A synthase 1 (HMG CoA S) (NM 0002130.1): 0.3536 | Decreased fold, mevalonate decarboxylase (MVD) (NM002461.1): 0.3299 | Decreased fold, squalene epoxidase (NM 003129.2): 0.5 | Decreased fold, Insulin induced gene 1 (INSIG1) (NM 005542.1): 0.3299 | Decreased fold, fatty acid desaturase 1 (NM005931.1): 0.6598 | Decreased fold, emopamil-bindingprotein (sterol isomerase) (NM006579.1): 0.6156 | Decreased fold, dihydrolipoamide S-acetyltransferase (NM0019312): 0.6598 | transcription level (fold), cytochrome P450, subfamily I (dioxin-inducible), polypeptide 1 (NM_00010): 0.3299 | transcription level (fold), mevalonate kinase (mevalonic aciduria) (NM_00043): 0.5 | transcription level (fold), nuclear receptor subfamily O, group B, member 1 (NM_00047): 0.5359 | transcription level (fold), low density lipoprotein receptor (familial hypercholesterolemia) (NM_00052): 0.6156 | transcription level (fold), cytochrome P450, 51 (lanosterol 14-alpha-demthylase) (NM_00078): 0.5359 | transcription level (fold), 3-hydroxy-3-methylglutaryl-Coenzyme A reductase (NM_00085): 0.4665 | transcription level (fold), ATP citrate lyase (NM_00109): 0.7071 | transcription level (fold), dehydrocholesterol reductase (NM_00136): 0.5743 | transcription level (fold), fibroblast growth factor 2 (basic) (NM_00200, Hs.284244): 0.5 | transcription level (fold), farnesyl diphosphate synthase (NM_00200, Hs.77393): 0.6598 | transcription level (fold), 3-hydroxy-3-methylglutaryl-Coenzyme a synthase 1 (soluble) (NM_00213): 0.3536 | transcription level (fold), meningioma (disrupted in balanced translocation) 1 (NM_00243): 0.6156 | transcription level (fold), Homo sapiens periplakin (PPL) (NM_00270): 0.6156 | transcription level (fold), H2B histone family, member Q (NM_00352): 0.5 | transcription level (fold), basic heliz-loop-helix domain containing, class B, 2 (NM_00367): 0.5743 | transcription level (fold), tumor necrosis factor (ligand) superfamily, member9 (NM_00381): 0.5743 | Decreased fold, mevalonate kinase (MVK) (NM_000431.1): 0.5 | Decreased fold, low density lipoprotein receptor (LDLR) (NM_000527.2): 0.5743 | transcription level (fold), UDP-N-acetylglucosamine-2-epimerase-N-acetrylmannosamine kinase (NM_00547): 0.5743 | transcription level (fold), Isocitrate dehydrogenase 1 (NADP+), soluble (NM_00589): 0.7071 | transcription level (fold), fatty acid desaturase 1 (NM_00593): 0.6598 | transcription level (fold), lipase, endothelial (NM_00603): 0.5359 | transcription level (fold), IGF-II mRNA-binding protein 3 (NM_00654): 0.4665 | transcription level (fold), emopamil-binding protein (sterol isomerase) (NM_00657): 0.6156 | transcription level (fold), serum-inducible kinase (NM_00662): 0.5743 | Decreased fold, acetyl-Coenzyme A carboxylase alpha (NM_000664.1): 0.5743 | Decreased fold, ATP citrate lyase (NM_001096.1): 0.5743 | transcription level (fold), hydroxysteroid (17-beta) dehydrogenase 7 (NM_01637): 0.4665 | Decreased fold, farnesyl pyrophosphate syntlietase (NM_002004.1): 0.6598 | Decreased fold, fatty-acid-Coenzyme A ligase long chain 3 (NM_004457.2): 0.7071 | Decreased fold, famesyl-diphosphate famesyltransferase 1 (NM_004462.1): 0.5359 | Decreased fold, stearoyl-CoA desaturase (SCD) (NM_005063.1): 0.5743 | transcription level (fold), seladin-1 (NM_014676): 0.6598 | Decreased fold, hydroxysteroid (17-beta) dehydrogenase 7 (NM_016371.1): 0.4665 | Decreased fold, fatty-acid-Coenzyme A ligase long chain 4 (NM_022977.1): 0.7071 | transcription level (fold), low density lipoprotein receptor (familial hypercholesterolemia) (S70123.1): 0.7071 | transcription level (fold), ATP citrate lyase (U18197.1): 0.5743 | transcription level (fold), cytochrome P450, 51 (lanosterol 14-alpha-demethylase) (U40053): 0.4665 | transcription level (fold), pinin, desmosome associated protein (U59479.1): 0.5359
